Measured values as given in patent publication US20120301895A1, “METHODS OF MODULATING BINDING OF SON OF SEVENLESS TO PHOSPHATIDIC ACID AND IDENTIFYING COMPOUNDS THAT MODULATE SUCH BINDING” (THE RESEARCH FOUNDATION OF STATE UNIVERSITY OF NEW YORK, priority 2007, published 2012).

Tested on: T24 cells
Assay: Cell viability and PARP cleavage in T24 cells
Format: cell-based, human
Settings: honokiol 20 μM, 0.5% serum
Description: In FIG. 17A, T24 and Calu1 cells (obtained from the American Type Culture Collection) were plated in DMEM containing 10% serum for 48 hr and then shifted to either 10% serum or 0.5% serum overnight as indicated. Honokiol (20 μM) or control ethanol was then added for 4 hr as indicated. [^3H]-Myristate was added with the honokiol. After 4 hr, BtOH (0.7%) was added for 20 min, at which time the cells were harvested and the level of phosphatidyl-BtOH (P-Bt) was determined as in FIGS. 12A-C. The experiments shown are representative of at least two independent experiments. In FIG. 17B, T24 and Calu-1 cells were plated in DMEM with 10% serum for 48 hr then changed to DMEM containing either 10% or 0.5% serum overnight as indicated. Honokiol (20 μM) or control ethanol was then added either at the time of changing media (24 hr), or 4 hr before harvesting as in FIGS. 14A-E, at which time the cells were examined for cell viability or PARD cleavage. […]
Cell viability was determined by trypan blue exclusion. […] After 10 min, trypan blue uptake (dead cells) was determined by counting on a hemocytometer. Apoptosis was evaluated by examination of cleavage of the caspase 3 substrate PARP as described previously (Chen et al., “Alternative Phospholipase D/mTOR Survival Signal in Human Breast Cancer Cells,” Oncogene 24:672-9 (2005), which is hereby incorporated by reference in its entirety). […]

C=CCc1ccc(O)c(-c2ccc(O)c(CC=C)c2)c1 [honokiol, Honokiol]
PARP cleavage: induced
cell death: induced
